Like-named read-outs stand apart in the source and are kept apart here.
Legend:
[1] = acute toxicity, i.v., female mice of NMRI-Strain; conditions: mouse, in vivo, iv
Description: Acute toxicity was determined by using female mice of NMRI-Strain with an age of about 7 months and weighing 30-40 g. The administration of the test compound was i.v.

[2] = tested on: all the bacterial species; assay: antibacterial activity in vitro, agar diffusion method, all bacterial species; assay type: cell-based; conditions: 1000 μg/ml
Description: (§1) The antimicrobial activity was determined in vitro according to a qualitative test for antibacterial and antifungal activity, using the agar diffusion method, against the following standard organisms: Staphylococcus aureus, Streptococcus pyogenes, Escherichia coli, Proteus mirabilis, Pseudomonas aeruginosus, Candida albicans and Aspergillus niger.

fungi = assay: antifungal activity in vitro, agar diffusion method, fungi; assay type: cell-based, Candida albicans and Aspergillus niger; conditions: 1000 μg/ml
Description: as §1

[3] = tested on: isoprenaline-induced chronotropic and inotropic action in the isolated atrium; assay: β-blocking activity in vitro, isoprenaline-induced chronotropic and inotropic action in isolated guinea-pig atrium; assay type: cell-based; conditions: Cavia porcellus; 1 μg/ml; read-out: inhibition of isoprenaline-induced chronotropic effect
Description: The β-blocking activity was measured in vitro as follows: The atrium of a guinea-pig was isolated. The inhibiting activity of the compound against isoprenaline-induced chronotropic and inotropic action in the isolated atrium was measured.

[4] = tested on: arachidonic acid induced pulmonary thromboembolism; assay: antithrombotic activity in vivo, arachidonic acid induced pulmonary thromboembolism in mice; conditions: 10 mg/kg p.o.
Description: The antithrombotic activity was investigated in vivo in mice as follows: The compounds to be tested were administered orally. After this arachidonic acid was given i.v. The inhibiting activity of the test compounds against arachidonic acid induced pulmonary thromboembolism was investigated.

Sprague-Dawley rats = assay: blood pressure and pulse frequency in anesthetized rats of normal weight; assay type: in vivo; conditions: for minimal effective dose: Rattus norvegicus, iv, anesthetized rats, i.v.
Description: The anti-hypertensive properties of the imidazole derivatives of the present invention have been determined according to the following procedure. Sprague-Dawley rats of normal weight were first anesthetized with urethane. After this, the femoral artery was connected by way of a polyethylene tube with a blood pressure transducer. The test substance was then injected into the femoral vein and the blood pressure and the pulse frequency were registered with a recorder.

[5] = tested on: all standard bacterial and fungal species; assay: antimicrobial activity in vitro, agar diffusion method, all standard bacterial and fungal species; assay type: cell-based; conditions: 1000 μg/ml
Description: as §1

rats = assay: diuretic effect in rats, urine output 0-5 hours after i.p. injection; assay type: in vivo
Description: The diuretic effect was studied in rats by collecting the urine output during 0-5 hours after i.p. injection of the compound. Before the test the rats were fasting overnight and got 10 ml water p.o. immediately before the injection.

[6] = tested on: collagen-induced aggregation of thrombocytes; assay: antithrombotic activity in vitro, collagen-induced aggregation of thrombocytes; assay type: cell-based; conditions: cow thrombocytes, 10 min incubation
Description: (§2) In a further test the antithrombotic activity was investigated in vitro. The inhibiting activity of the compounds against ADP- and collagen-inducedaggregation of thrombocytes was measured. In the test thrombocytes from a cow was used. To 1.2 ml of plasma containing 250000 thrombocytes/mm^3 were added 50 μl of a solution of the compound to be tested. After 10 min incubation either ADP or collagen was added. The aggregation of the thrombocytes was turbidimetrically determined at λ=605 n m.

[7] = tested on: ADP-induced aggregation of thrombocytes; assay: antithrombotic activity in vitro, ADP-induced aggregation of thrombocytes; assay type: cell-based; conditions: cow thrombocytes, 10 min incubation
Description: as §2

Candida albicans = assay: antifungal activity in vitro, agar diffusion method, Candida albicans; assay type: cell-based; conditions: 1000 μg/ml
Description: as §1

Aspergillus niger = assay: antifungal activity in vitro, agar diffusion method, Aspergillus niger; assay type: cell-based; conditions: 1000 μg/ml
Description: as §1

E. coli = assay: antibacterial activity in vitro, agar diffusion method, E. coli; assay type: cell-based, Escherichia coli; conditions: 100 μg/ml
Description: as §1

Staph. aureus = assay: antibacterial activity in vitro, agar diffusion method, Staph. aureus; assay type: cell-based, Staphylococcus aureus; conditions: 100 μg/ml
Description: as §1

[8] = tested on: all other bacterial and fungal species; assay: antimicrobial activity in vitro, agar diffusion method, all other bacterial and fungal species (than E. coli and Staph. aureus); assay type: cell-based; conditions: 1000 μg/ml
Description: as §1

[9] = 1 mg/kg, 20 minutes after administration
[10] = read-out: dose i.v. causing a registrable lowering of the blood pressure
[11] = 300 μg/kg i.v., 20 minutes after administration

Cc1[nH]cnc1C=Cc1ccccc1Cl [4-[2-(2'-Chlorophenyl)-ethenyl]-5-methyl-imidazole]
LD50 [1]: 85 mg/kg | activity against all the bacterial species [2]: active | activity against the fungi (fungi): not against the fungi | inhibition at 1 µg/mL [3]: 67% | mice protected from arachidonic acid-induced pulmonary thromboembolism [4]: 4 of 5

Clc1cccc(Cl)c1C=Cc1c[nH]cn1 [4-[2-(2',6'-Dichlorophenyl)-ethenyl]-imidazole]
decrease of pulse frequency (Sprague-Dawley rats; [9]): 30% | lowering of the blood pressure (Sprague-Dawley rats; [9]): 25% | LD50 [1]: 85 mg/kg | antimicrobial activity against all standard bacterial and fungal species [5]: active | diuretic effect (5h) (rats; 0.005 mg/kg i.p.): 128% | diuretic effect (5h) (rats; 0.05 mg/kg i.p.): 132% | diuretic effect (5h) (rats; 0.5 mg/kg i.p.): 135%

Cc1cccc(C)c1CC=Cc1c[nH]cn1 [4-[3-(2',6'-Dimethylphenyl)-1-propenyl]-imidazole]
decrease of the blood pressure (Sprague-Dawley rats; 1-3 mg/kg i.v., 20 minutes after administration): 20% | LD50 [1]: 75 mg/kg

Cc1cccc(CC=Cc2c[nH]cn2)c1C [4-[3-(2',3'-Dimethylphenyl)-1-propenyl]-imidazole]
decrease of the blood pressure (Sprague-Dawley rats; 0.3-1 mg/kg i.v., 20 minutes after administration): 20% | LD50 [1]: 75 mg/kg | inhibition of collagen-induced thrombocyte aggregation [6]: completely | inhibition of ADP-induced thrombocyte aggregation [7]: clearly

Cc1[nH]cnc1C=Cc1c(Cl)cccc1Cl [4-[2-(2',6'-Dichlorophenyl)-ethenyl]-5-methyl-imidazole]
lowering of the blood pressure (Sprague-Dawley rats; 3 mg/kg i.v., 20 minutes after administration): 30% | minimal effective dose (Sprague-Dawley rats; read-out: dose i.v. at which a decrease of pulse frequency was noticed): 1 mg/kg | minimal effective dose (Sprague-Dawley rats; [10]): 0.3 mg/kg | LD50 [1]: 100 mg/kg | activity against all the bacterial species [2]: active | activity against Candida albicans (Candida albicans): active | activity against Aspergillus niger (Aspergillus niger): inactive

Cc1cccc(C)c1/C=C/c1c[nH]cn1 [4-[2-(2',6'-Dimethylphenyl)-ethenyl]-imidazole]
decrease of pulse frequency (Sprague-Dawley rats; [11]): 24% | reduction of the blood pressure (Sprague-Dawley rats; [11]): 20% | minimal effective dose (Sprague-Dawley rats; [10]): 0.01 mg/kg | LD50 [1]: 50 mg/kg

Cc1cccc(C)c1CCCC=Cc1c[nH]cn1 [4-[5-(2',6'-Dimethylphenyl)-1-pentenyl]-imidazole]
LD50 [1]: 40 mg/kg | activity against E. coli (E. coli): active | activity against Staph. aureus (Staph. aureus): active | activity against all other bacterial and fungal species [8]: active | inhibition at 1 µg/mL [3]: 57%

— patent publication US4333947A, “Substituted imidazoles and their use” (Farmos-Yhtyma Oy, priority 1980, dated 1982)
